Test results as given in PubChem BioAssay (NCI).
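Values below derive from 48-hour exposures of cells grown in 96-well plates, with endpoints linearly interpolated between the two concentrations bracketing the appropriate inhibition level. GI50 marks 50% less growth. At the TGI there is no net growth.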

Columns and labels:
Assay in all cases: NCI-60 cell line screen, 48 h
MOLT-4 leukemia = test system: MOLT-4 leukemia
HOP-62 NSCLC = test system: HOP-62 NSCLC
NCI-H226 lung = test system: NCI-H226 lung
IGROV1 ovarian = test system: IGROV1 ovarian
SNB-19 CNS = test system: SNB-19 CNS
MDA-MB-231 breast = test system: MDA-MB-231 breast
SK-MEL-2 melanoma = test system: SK-MEL-2 melanoma
BT-549 breast = test system: BT-549 breast
OVCAR-3 ovarian = test system: OVCAR-3 ovarian
HT29 colon = test system: HT29 colon
A549 NSCLC = test system: A549 NSCLC
SN12C renal = test system: SN12C renal
RXF 393 renal = test system: RXF 393 renal
LOX IMVI melanoma = test system: LOX IMVI melanoma
SW-620 colon = test system: SW-620 colon
DU-145 prostate = test system: DU-145 prostate
SK-OV-3 ovarian = test system: SK-OV-3 ovarian
SF-268 CNS = test system: SF-268 CNS
NCI-H522 lung = test system: NCI-H522 lung
K-562 leukemia = test system: K-562 leukemia
HS 578T breast = test system: HS 578T breast
SK-MEL-5 melanoma = test system: SK-MEL-5 melanoma
OVCAR-8 ovarian = test system: OVCAR-8 ovarian
SNB-75 CNS = test system: SNB-75 CNS
UACC-62 melanoma = test system: UACC-62 melanoma
MDA-MB-435 = test system: MDA-MB-435
NCI-H460 lung = test system: NCI-H460 lung
PC-3 prostate = test system: PC-3 prostate
UO-31 renal = test system: UO-31 renal
CAKI-1 renal = test system: CAKI-1 renal
CCRF-CEM leukemia = test system: CCRF-CEM leukemia
ACHN renal = test system: ACHN renal
HCC-2998 colon = test system: HCC-2998 colon
COLO 205 colon = test system: COLO 205 colon
NCI-H23 lung = test system: NCI-H23 lung
HOP-92 NSCLC = test system: HOP-92 NSCLC
KM12 colon = test system: KM12 colon
T-47D breast = test system: T-47D breast
HCT-15 colon = test system: HCT-15 colon
EKVX NSCLC = test system: EKVX NSCLC
MALME-3M melanoma = test system: MALME-3M melanoma
SR leukemia = test system: SR leukemia
OVCAR-5 ovarian = test system: OVCAR-5 ovarian
786-0 renal = test system: 786-0 renal
HCT-116 colon = test system: HCT-116 colon
M14 melanoma = test system: M14 melanoma
UACC-257 melanoma = test system: UACC-257 melanoma
RPMI-8226 leukemia = test system: RPMI-8226 leukemia
MCF7 breast = test system: MCF7 breast
OVCAR-4 ovarian = test system: OVCAR-4 ovarian
SK-MEL-28 melanoma = test system: SK-MEL-28 melanoma
SF-539 CNS = test system: SF-539 CNS
A498 renal = test system: A498 renal
NCI/ADR-RES ovarian = test system: NCI/ADR-RES ovarian
U251 CNS = test system: U251 CNS
HL-60(TB) leukemia = test system: HL-60(TB) leukemia
TK-10 renal = test system: TK-10 renal

SMILES: Cc1cc(I)cc(CN(CCCN(C)C)C(C)C)c1O
- GI50 (MOLT-4 leukemia): 16.3 µM
- TGI (MOLT-4 leukemia): 34.7 µM
- GI50 (HOP-62 NSCLC): 16.1 µM
- TGI (HOP-62 NSCLC): 30.6 µM
- GI50 (NCI-H226 lung): 25.7 µM
- TGI (NCI-H226 lung): > 100 µM
- GI50 (IGROV1 ovarian): 15.9 µM
- TGI (IGROV1 ovarian): 31.7 µM
- GI50 (SNB-19 CNS): 18.4 µM
- TGI (SNB-19 CNS): 42.5 µM
- GI50 (MDA-MB-231 breast): 18.1 µM
- TGI (MDA-MB-231 breast): 43.6 µM
- GI50 (SK-MEL-2 melanoma): 18.2 µM
- TGI (SK-MEL-2 melanoma): 35.7 µM
- GI50 (BT-549 breast): 11.5 µM
- TGI (BT-549 breast): 23.9 µM
- GI50 (OVCAR-3 ovarian): 18.8 µM
- TGI (OVCAR-3 ovarian): 34.8 µM
- GI50 (HT29 colon): 9.23 µM
- TGI (HT29 colon): 21.2 µM
- GI50 (A549 NSCLC): 18.2 µM
- TGI (A549 NSCLC): 39.6 µM
- GI50 (SN12C renal): 37.8 µM
- TGI (SN12C renal): > 100 µM
- GI50 (RXF 393 renal): 16 µM
- TGI (RXF 393 renal): 46.8 µM
- GI50 (LOX IMVI melanoma): 15 µM
- TGI (LOX IMVI melanoma): 28.6 µM
- GI50 (SW-620 colon): 17.3 µM
- TGI (SW-620 colon): 31.6 µM
- GI50 (DU-145 prostate): 16.1 µM
- TGI (DU-145 prostate): 29.6 µM
- GI50 (SK-OV-3 ovarian): 15.1 µM
- TGI (SK-OV-3 ovarian): 30.9 µM
- GI50 (SF-268 CNS): 17.1 µM
- TGI (SF-268 CNS): 32.9 µM
- GI50 (NCI-H522 lung): 16 µM
- TGI (NCI-H522 lung): 31.4 µM
- GI50 (K-562 leukemia): 16.3 µM
- TGI (K-562 leukemia): 34.7 µM
- GI50 (HS 578T breast): 18.1 µM
- TGI (HS 578T breast): 35.6 µM
- GI50 (SK-MEL-5 melanoma): 16.4 µM
- TGI (SK-MEL-5 melanoma): 30.2 µM
- GI50 (OVCAR-8 ovarian): 31.6 µM
- TGI (OVCAR-8 ovarian): > 100 µM
- GI50 (SNB-75 CNS): 16.6 µM
- TGI (SNB-75 CNS): 36.3 µM
- GI50 (UACC-62 melanoma): 15.2 µM
- TGI (UACC-62 melanoma): 33.7 µM
- GI50 (MDA-MB-435): 17.3 µM
- TGI (MDA-MB-435): 35.9 µM
- GI50 (NCI-H460 lung): 15.9 µM
- TGI (NCI-H460 lung): 29.8 µM
- GI50 (PC-3 prostate): 14 µM
- TGI (PC-3 prostate): 30.4 µM
- GI50 (UO-31 renal): 14.5 µM
- TGI (UO-31 renal): 32.6 µM
- GI50 (CAKI-1 renal): 16.5 µM
- TGI (CAKI-1 renal): 33.6 µM
- GI50 (CCRF-CEM leukemia): 0.116 µM
- TGI (CCRF-CEM leukemia): 1.03 µM
- GI50 (ACHN renal): 17.3 µM
- TGI (ACHN renal): 31.6 µM
- GI50 (HCC-2998 colon): 16.5 µM
- TGI (HCC-2998 colon): 30.6 µM
- GI50 (COLO 205 colon): 14.7 µM
- TGI (COLO 205 colon): 27.8 µM
- GI50 (NCI-H23 lung): 31.4 µM
- TGI (NCI-H23 lung): > 100 µM
- GI50 (HOP-92 NSCLC): 5.77 µM
- TGI (HOP-92 NSCLC): 31.9 µM
- GI50 (KM12 colon): 18 µM
- TGI (KM12 colon): 36 µM
- GI50 (T-47D breast): 15.2 µM
- TGI (T-47D breast): 39.8 µM
- GI50 (HCT-15 colon): 17.5 µM
- TGI (HCT-15 colon): 39.5 µM
- GI50 (EKVX NSCLC): 18.3 µM
- TGI (EKVX NSCLC): 42.9 µM
- GI50 (MALME-3M melanoma): 21.6 µM
- TGI (MALME-3M melanoma): 40.8 µM
- GI50 (SR leukemia): 15.9 µM
- TGI (SR leukemia): 35.8 µM
- GI50 (OVCAR-5 ovarian): 19.7 µM
- TGI (OVCAR-5 ovarian): 53.5 µM
- GI50 (786-0 renal): 15.7 µM
- TGI (786-0 renal): 30.5 µM
- GI50 (HCT-116 colon): 12.6 µM
- TGI (HCT-116 colon): 25.1 µM
- GI50 (M14 melanoma): 16.2 µM
- TGI (M14 melanoma): 31 µM
- GI50 (UACC-257 melanoma): 16.7 µM
- TGI (UACC-257 melanoma): 32.5 µM
- GI50 (RPMI-8226 leukemia): 11.5 µM
- TGI (RPMI-8226 leukemia): 26.7 µM
- GI50 (MCF7 breast): 18.8 µM
- TGI (MCF7 breast): 36 µM
- GI50 (OVCAR-4 ovarian): 37.2 µM
- TGI (OVCAR-4 ovarian): > 100 µM
- GI50 (SK-MEL-28 melanoma): 16.5 µM
- TGI (SK-MEL-28 melanoma): 34.3 µM
- GI50 (SF-539 CNS): 15.3 µM
- TGI (SF-539 CNS): 29.1 µM
- GI50 (A498 renal): 21 µM
- TGI (A498 renal): 37.8 µM
- GI50 (NCI/ADR-RES ovarian): 23.1 µM
- TGI (NCI/ADR-RES ovarian): 61.6 µM
- GI50 (U251 CNS): 18.5 µM
- TGI (U251 CNS): 36.1 µM
- GI50 (HL-60(TB) leukemia): 18.2 µM
- TGI (HL-60(TB) leukemia): 36 µM
- GI50 (TK-10 renal): 18.2 µM
- TGI (TK-10 renal): 33.1 µM
